Data as given in patent US20250108110A1, “COMBINATION THERAPY FOR USE IN TREATMENT OF NON-SMALL CELL LUNG CANCER” (Alethia Biotherapeutics Inc., priority 2022, published 2025).

What was measured:
[1] = tested on: advanced non-small cell lung cancer; details: second-line chemotherapy; cited from earlier work
[2] = Pharmacokinetics of AB-16B5 in treated subjects; type: in vivo, human; details: preliminary pharmacokinetics data (not shown), 12 mg/kg once weekly
From the text: Yet another secondary objective of this study is to determine the pharmacokinetics of AB-16B5 in this subject population.

CC(=O)O[C@@]12CO[C@@H]1C[C@H](O)[C@@]1(C)C(=O)[C@H](O)C3=C(C)[C@@H](OC(=O)[C@H](O)[C@@H](NC(=O)OC(C)(C)C)c4ccccc4)C[C@@](O)([C@@H](OC(=O)c4ccccc4)[C@H]21)C3(C)C [docetaxel]
efficacy of 50 mg/m^2 once every two weeks versus 75 mg/m^2 once every three weeks [1]: as effective as

AB-16B5: humanized IgG2 monoclonal antibody targeting sCLU for the inhibition of cancer-associated EMT; light chain SEQ ID NO:14, heavy chain SEQ ID NO:15
accumulation of the antibody in the treated subjects over time [2]: accumulation
